From ChEMBL document CHEMBL1201862, “PubChem BioAssay data set” (2004)
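Results reflect a 48-hour exposure of cells in 96-well plates to compound at five concentrations. Abbreviation: GI50, concentration required for 50% inhibition of growth.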 Calls of active or inactive are those of the source. No stated cut-off is given here; in the data, active = GI50 up to about 1.1 µM and inactive = higher.

Columns and labels:
Test in all cases: NCI anticancer screen, dose series, 48 h
ACHN = system: ACHN
M14 = system: M14
IGROV-1 = system: IGROV-1
KM12 = system: KM12
K562 = system: K562
OVCAR-4 = system: OVCAR-4
HOP-92 = system: HOP-92
NCI-H226 = system: NCI-H226
HCT-116 = system: HCT-116
OVCAR-8 = system: OVCAR-8
EKVX = system: EKVX
786-0 = system: 786-0
HL-60 = system: HL-60
NCI-H23 = system: NCI-H23
SN12C = system: SN12C
BT-549 = system: BT-549
HOP-62 = system: HOP-62
PC-3 = system: PC-3
SNB-19 = system: SNB-19

Measured: GI50

C(=N\N=C1NCCCCN1)/c1ccc2ccccc2c1
inactive: ACHN 45.4 µM | M14 14.5 µM | IGROV-1 40.9 µM | KM12 26.9 µM | K562 20.9 µM | OVCAR-4 43.1 µM | HOP-92 14.4 µM | NCI-H226 24.7 µM | HCT-116 33.7 µM | OVCAR-8 43.7 µM | EKVX 46.7 µM | 786-0 23.1 µM | HL-60 23.3 µM | NCI-H23 76.7 µM | SN12C 39.9 µM | BT-549 37.2 µM | HOP-62 42.2 µM | PC-3 29.6 µM | SNB-19 61.5 µM

Cc1ccc([N+](=O)[O-])cc1S(=O)(=O)Nc1ccc(C2=NOC(c3ccccc3O)C2)cc1 (stereo not given)
inactive: ACHN 13.1 µM | M14 2.19 µM | IGROV-1 7.43 µM | KM12 3.16 µM | K562 2.25 µM | OVCAR-4 3 µM | HOP-92 26.2 µM | NCI-H226 5.82 µM | HCT-116 4.54 µM | OVCAR-8 31.2 µM | EKVX 17.1 µM | 786-0 8.65 µM | HL-60 2.17 µM | NCI-H23 10.4 µM | SN12C 12.3 µM | BT-549 6.27 µM | HOP-62 5.12 µM | PC-3 4.74 µM | SNB-19 3.31 µM

C=C[C@@]1(C)CC(=O)[C@]2(O)[C@@]3(C)[C@@H](O)CCC(C)(C)[C@@H]3[C@H](O)[C@@H](OC(C)=O)[C@@]2(C)O1
inactive: ACHN > 100 µM | M14 > 100 µM | IGROV-1 > 100 µM | KM12 1.7 µM | K562 > 100 µM | OVCAR-4 > 100 µM | HOP-92 > 100 µM | NCI-H226 > 100 µM | HCT-116 > 100 µM | OVCAR-8 > 100 µM | EKVX > 100 µM | 786-0 > 100 µM | HL-60 48.6 µM | NCI-H23 > 100 µM | SN12C 57.7 µM | BT-549 > 100 µM | HOP-62 > 100 µM | PC-3 > 100 µM | SNB-19 > 100 µM

COc1ccc2c3c([nH]c2c1)[C@H](C=C(C)C)N1C(=O)[C@@H]2CCCN2C(=O)[C@@H]1C3 [FUMITREMORGIN]
inactive: ACHN 56 µM | M14 > 100 µM | IGROV-1 > 100 µM | KM12 > 100 µM | K562 > 100 µM | OVCAR-4 > 100 µM | HOP-92 38.7 µM | NCI-H226 > 100 µM | HCT-116 > 100 µM | OVCAR-8 64.4 µM | EKVX > 100 µM | 786-0 48 µM | HL-60 > 100 µM | NCI-H23 > 100 µM | SN12C > 100 µM | BT-549 > 100 µM | HOP-62 47 µM | PC-3 > 100 µM | SNB-19 > 100 µM

O=c1ccn([C@@H]2C[C@H]2CO)c(=O)[nH]1
inactive: ACHN > 100 µM | M14 > 100 µM | IGROV-1 > 100 µM | KM12 > 100 µM | K562 > 100 µM | OVCAR-4 > 100 µM | HOP-92 > 100 µM | NCI-H226 > 100 µM | HCT-116 > 100 µM | OVCAR-8 > 100 µM | EKVX > 100 µM | 786-0 > 100 µM | HL-60 > 100 µM | NCI-H23 > 100 µM | SN12C > 100 µM | BT-549 > 100 µM | HOP-62 > 100 µM | PC-3 > 100 µM | SNB-19 > 100 µM

CCOc1ccc(/C=C2\N=C(c3ccc([N+](=O)[O-])cc3)OC2=O)cc1
inactive: ACHN > 100 µM | M14 > 100 µM | IGROV-1 > 100 µM | KM12 > 100 µM | K562 > 100 µM | OVCAR-4 > 100 µM | HOP-92 > 100 µM | NCI-H226 > 100 µM | HCT-116 > 100 µM | OVCAR-8 > 100 µM | EKVX > 100 µM | 786-0 > 100 µM | HL-60 > 100 µM | NCI-H23 > 100 µM | SN12C > 100 µM | BT-549 > 100 µM | HOP-62 > 100 µM | PC-3 > 100 µM | SNB-19 > 100 µM

CCn1c2ccccc2c2ccc(C3C4C(=O)N(c5cccc6ccccc56)C(=O)C4ON3C(C(N)=O)c3ccccc3)cc21 (stereo not given)
inactive: ACHN > 25 µM | M14 19.1 µM | IGROV-1 13.4 µM | KM12 9.95 µM | K562 14.8 µM | OVCAR-4 14.6 µM | HOP-92 > 25 µM | NCI-H226 2.76 µM | HCT-116 13 µM | OVCAR-8 > 25 µM | EKVX 12.9 µM | 786-0 21.2 µM | HL-60 17.7 µM | NCI-H23 24 µM | SN12C 16.7 µM | BT-549 14.9 µM | HOP-62 > 25 µM | PC-3 14.2 µM | SNB-19 > 25 µM

O=C1CSC(c2cccs2)N1c1nc2cc3sc(N4C(=O)CSC4c4cccs4)nc3cc2s1 (stereo not given)
inactive: ACHN > 50 µM | M14 > 50 µM | IGROV-1 32.3 µM | KM12 > 50 µM | K562 34.5 µM | OVCAR-4 > 50 µM | HOP-92 > 50 µM | NCI-H226 6.38 µM | HCT-116 38.4 µM | OVCAR-8 > 50 µM | EKVX 16 µM | 786-0 > 50 µM | HL-60 > 50 µM | NCI-H23 28.8 µM | SN12C 26.4 µM | BT-549 > 50 µM | HOP-62 > 50 µM | PC-3 47.9 µM | SNB-19 > 50 µM

CNC(=O)CCC(NC(C)=O)C(=O)NC(Cc1ccc(NC(=O)CCCCC(C)=O)cc1)C(=O)NC(CCC(=O)NC)C(=O)NC (stereo not given)
inactive: ACHN > 100 µM | M14 > 100 µM | IGROV-1 > 100 µM | KM12 > 100 µM | K562 > 100 µM | OVCAR-4 > 100 µM | HOP-92 > 100 µM | NCI-H226 > 100 µM | HCT-116 > 100 µM | OVCAR-8 > 100 µM | EKVX > 100 µM | 786-0 > 100 µM | HL-60 > 100 µM | NCI-H23 > 100 µM | SN12C > 100 µM | BT-549 > 100 µM | HOP-62 > 100 µM | PC-3 > 100 µM | SNB-19 > 100 µM

C/C(=C(/C)c1ccc(O)cc1)c1ccc(O)cc1 [DIMETHYLSTILBESTROL]
inactive: ACHN 28.8 µM | M14 45.3 µM | IGROV-1 > 100 µM | KM12 62.7 µM | K562 46 µM | OVCAR-4 > 10 µM | HOP-92 27.4 µM | NCI-H226 36.7 µM | HCT-116 83.2 µM | OVCAR-8 36.1 µM | EKVX 8.95 µM | 786-0 61.9 µM | HL-60 41.4 µM | NCI-H23 43.6 µM | SN12C 58.6 µM | BT-549 12.6 µM | HOP-62 94 µM | PC-3 41.3 µM | SNB-19 > 100 µM
